In patent US12012411B2, “Viral replication inhibitors” (Katholieke Universiteit Leuven, priority 2011, dated 2024):

System: DENV-2 NGC
Assay: Antiviral activity against DENV-2 NGC in Vero-B cells (viral RNA load by RT-qPCR)
Assay type: cell-based, Dengue virus
Conditions: Dengue virus, DENV2, Vero B, DENV-2 in Vero-B cells; inhibition of viral RNA replication by 50% (Table 3)

Row | Structure (SMILES) | EC50 [µM]
1 | COc1cccc(NC(C(=O)c2nn(C)c3c2CN(C)CC3)c2ccccc2)c1 (stereo not drawn) [CPD-223] | 58
2 | COc1cccc(NC(C(=O)c2c[nH]c3c(C)cccc23)c2ccccc2)c1 (stereo not drawn) [CPD-224] | 0.05
3 | COc1cccc(NC(C(=O)c2c[nH]c3ccc(CN(C)C)cc23)c2ccccc2)c1 (stereo not drawn) [CPD-228] | 1.62
4 | COc1cccc(NC(C(=O)c2c[nH]c3cccc(OC)c23)c2ccccc2)c1 (stereo not drawn) [CPD-231] | 1.22
5 | COc1cccc(NC(C(=O)c2c[nH]c3ccccc23)c2ccc(N(C)C)nc2)c1 (stereo not drawn) [CPD-239] | 22.7
6 | CCOc1cncc(NC(C(=O)c2c[nH]c3ccccc23)c2ccccc2)c1 (stereo not drawn) [CPD-246] | 0.32
7 | CC(C)Oc1cncc(NC(C(=O)c2c[nH]c3ccccc23)c2ccccc2)c1 (stereo not drawn) [CPD-247] | 0.42
8 | CCc1cncc(NC(C(=O)c2c[nH]c3ccccc23)c2ccccc2)c1 (stereo not drawn) [CPD-248] | 0.56
9 | CCOc1ccc(C(Nc2cccc(OC)c2)C(=O)c2c[nH]c3ccccc23)cn1 (stereo not drawn) [CPD-250] | 0.22
10 | COc1cccc(NC(C(=O)c2c[nH]c3cccc(C)c23)c2ccccc2)c1 (stereo not drawn) [CPD-251] | 0.07
11 | COc1cc(NC(C(=O)c2c[nH]c3ccccc23)c2ccccc2)cnc1N(C)C (stereo not drawn) [CPD-257] | 0.45
12 | COc1cncc(NC(C(=O)c2nn(C)c3ccccc23)c2ccccc2)c1 (stereo not drawn) [CPD-259] | 0.54
13 | CNc1ncc(NC(C(=O)c2c[nH]c3ccccc23)c2ccccc2)cc1OC (stereo not drawn) [CPD-261] | 0.39
14 | COc1cc(CN(C)C)cc(NC(C(=O)c2c[nH]c3ccccc23)c2ccccc2)c1 (stereo not drawn) [CPD-263] | 2.18
15 | COc1cccc(NC(C(=O)c2nn(C)c3ccccc23)c2ccc(OC)nc2)c1 (stereo not drawn) [CPD-264] | 0.51
16 | COc1cccc(NC(C(=O)c2c[nH]c3ccccc23)c2cc(C)n(C)n2)c1 (stereo not drawn) [CPD-267] | 1.3
17 | COc1cccc(NC(C(=O)c2c[nH]c3ccccc23)c2ccc(OC(C)C)nc2)c1 (stereo not drawn) [CPD-268] | 0.46
18 | O=C(c1c[nH]c2ccccc12)C(Nc1cncc(OC(F)F)c1)c1ccccc1 (stereo not drawn) [CPD-269] | 0.48

Row | Structure (SMILES) | EC50 [µM]
19 | COc1cccc(NC(C(=O)c2nn(C)c3ccccc23)c2cnc(OC)cn2)c1 (stereo not drawn) [CPD-272] | 0.47
20 | COc1cccc(NC(C(=O)c2c[nH]c3ccccc23)c2cnccn2)c1 (stereo not drawn) [CPD-274] | 0.39
21 | COc1cccc(NC(C(=O)c2nn(C)c3ccc(C#N)cc23)c2ccccc2)c1 (stereo not drawn) [CPD-275] | 9.96
22 | COc1cncc(NC(C(=O)c2nn(C)c3ccccc23)c2ccccc2)n1 (stereo not drawn) [CPD-276] | 2.62
23 | COc1cncc(NC(C(=O)c2c[nH]c3ccccc23)c2cccnc2)n1 (stereo not drawn) [CPD-280] | 0.78
24 | COc1ccc(C(Nc2cncc(OC)n2)C(=O)c2c[nH]c3ccccc23)cn1 (stereo not drawn) [CPD-284] | 0.62
25 | COc1cccc(NC(C(=O)c2nn(C)c3cc(C#N)ccc23)c2ccccc2)c1 (stereo not drawn) [CPD-286] | 1.05
26 | COc1cncc(NC(C(=O)c2c[nH]c3cc(F)ccc23)c2ccccc2)n1 (stereo not drawn) [CPD-287] | 0.44
27 | COc1cncc(NC(C(=O)c2c[nH]c3ccccc23)c2cc3ccccn3n2)n1 (stereo not drawn) [CPD-290] | 0.88
28 | COc1cccc(NC(C(=O)c2cccc3[nH]ccc23)c2ccccc2)c1 (stereo not drawn) [CPD-302] | 0.65
29 | COc1cccc(NC(C(=O)c2c[nH]c3ccccc23)c2cc3n(n2)CCOC3)c1 (stereo not drawn) [CPD-311] | 2.58
30 | COc1cccc(NC(C(=O)c2c[nH]c3ccccc23)c2cncc(OC)c2)c1 (stereo not drawn) [CPD-312] | 4.67
31 | COc1cccc(NC(C(=O)c2noc3ccccc23)c2ccccc2)c1 (stereo not drawn) [CPD-330] | 4.63
32 | COc1cc(OC)nc(NC(C(=O)c2c[nH]c3ccccc23)c2ccccc2)n1 (stereo not drawn) [CPD-347] | 0.98
33 | COc1cc(NC(C(=O)c2c[nH]c3ccccc23)c2ccccc2)ccc1F (stereo not drawn) [CPD-356] | 0.12
34 | COc1cc(NC(C(=O)c2cn(C)c3c(CCO)cccc23)c2ccccc2)cc(OC)c1 (stereo not drawn) [CPD-358] | 0.18
35 | COc1cc(NC(C(=O)c2c[nH]c3c(CO)cccc23)c2ccccc2)cc(OC)c1 (stereo not drawn) [CPD-362] | 0.09
36 | COc1cncc(NC(C(=O)c2c[nH]c3c(CCO)cccc23)c2ccccc2)c1 (stereo not drawn) [CPD-364] | 1.12

System: not listed separately
Assay: in vitro
Conditions: African green monkey, uninfected quiescent Vero-B cells

Row | Structure (SMILES) | CC50 at 4 days [µM]
37 | COc1cccc(NC(C(=O)c2nn(C)c3c2CN(C)CC3)c2ccccc2)c1 (stereo not drawn) [CPD-223] | > 128
38 | COc1cccc(NC(C(=O)c2c[nH]c3c(C)cccc23)c2ccccc2)c1 (stereo not drawn) [CPD-224] | > 134
39 | COc1cccc(NC(C(=O)c2c[nH]c3ccc(CN(C)C)cc23)c2ccccc2)c1 (stereo not drawn) [CPD-228] | 13
40 | COc1cccc(NC(C(=O)c2c[nH]c3cccc(OC)c23)c2ccccc2)c1 (stereo not drawn) [CPD-231] | 18
41 | COc1cccc(NC(C(=O)c2c[nH]c3ccccc23)c2ccc(N(C)C)nc2)c1 (stereo not drawn) [CPD-239] | > 125
42 | CCOc1cncc(NC(C(=O)c2c[nH]c3ccccc23)c2ccccc2)c1 (stereo not drawn) [CPD-246] | 16
43 | CC(C)Oc1cncc(NC(C(=O)c2c[nH]c3ccccc23)c2ccccc2)c1 (stereo not drawn) [CPD-247] | 15
44 | CCc1cncc(NC(C(=O)c2c[nH]c3ccccc23)c2ccccc2)c1 (stereo not drawn) [CPD-248] | 15
45 | CCOc1ccc(C(Nc2cccc(OC)c2)C(=O)c2c[nH]c3ccccc23)cn1 (stereo not drawn) [CPD-250] | 15
46 | COc1cccc(NC(C(=O)c2c[nH]c3cccc(C)c23)c2ccccc2)c1 (stereo not drawn) [CPD-251] | 14
47 | COc1cc(NC(C(=O)c2c[nH]c3ccccc23)c2ccccc2)cnc1N(C)C (stereo not drawn) [CPD-257] | 17
48 | COc1cncc(NC(C(=O)c2nn(C)c3ccccc23)c2ccccc2)c1 (stereo not drawn) [CPD-259] | 14
49 | CNc1ncc(NC(C(=O)c2c[nH]c3ccccc23)c2ccccc2)cc1OC (stereo not drawn) [CPD-261] | 15
50 | COc1cc(CN(C)C)cc(NC(C(=O)c2c[nH]c3ccccc23)c2ccccc2)c1 (stereo not drawn) [CPD-263] | 13
51 | COc1cccc(NC(C(=O)c2nn(C)c3ccccc23)c2ccc(OC)nc2)c1 (stereo not drawn) [CPD-264] | > 124
52 | COc1cccc(NC(C(=O)c2c[nH]c3ccccc23)c2cc(C)n(C)n2)c1 (stereo not drawn) [CPD-267] | 79
53 | COc1cccc(NC(C(=O)c2c[nH]c3ccccc23)c2ccc(OC(C)C)nc2)c1 (stereo not drawn) [CPD-268] | 15
54 | O=C(c1c[nH]c2ccccc12)C(Nc1cncc(OC(F)F)c1)c1ccccc1 (stereo not drawn) [CPD-269] | 13

Row | Structure (SMILES) | CC50 at 4 days [µM]
55 | COc1cccc(NC(C(=O)c2nn(C)c3ccccc23)c2cnc(OC)cn2)c1 (stereo not drawn) [CPD-272] | > 124
56 | COc1cccc(NC(C(=O)c2c[nH]c3ccccc23)c2cnccn2)c1 (stereo not drawn) [CPD-274] | 100
57 | COc1cccc(NC(C(=O)c2nn(C)c3ccc(C#N)cc23)c2ccccc2)c1 (stereo not drawn) [CPD-275] | > 126
58 | COc1cncc(NC(C(=O)c2nn(C)c3ccccc23)c2ccccc2)n1 (stereo not drawn) [CPD-276] | 23
59 | COc1cncc(NC(C(=O)c2c[nH]c3ccccc23)c2cccnc2)n1 (stereo not drawn) [CPD-280] | > 139
60 | COc1ccc(C(Nc2cncc(OC)n2)C(=O)c2c[nH]c3ccccc23)cn1 (stereo not drawn) [CPD-284] | 74
61 | COc1cccc(NC(C(=O)c2nn(C)c3cc(C#N)ccc23)c2ccccc2)c1 (stereo not drawn) [CPD-286] | > 126
62 | COc1cncc(NC(C(=O)c2c[nH]c3cc(F)ccc23)c2ccccc2)n1 (stereo not drawn) [CPD-287] | > 132
63 | COc1cncc(NC(C(=O)c2c[nH]c3ccccc23)c2cc3ccccn3n2)n1 (stereo not drawn) [CPD-290] | > 125
64 | COc1cccc(NC(C(=O)c2cccc3[nH]ccc23)c2ccccc2)c1 (stereo not drawn) [CPD-302] | 15
65 | COc1cccc(NC(C(=O)c2c[nH]c3ccccc23)c2cc3n(n2)CCOC3)c1 (stereo not drawn) [CPD-311] | 77
66 | COc1cccc(NC(C(=O)c2c[nH]c3ccccc23)c2cncc(OC)c2)c1 (stereo not drawn) [CPD-312] | 69
67 | COc1cccc(NC(C(=O)c2noc3ccccc23)c2ccccc2)c1 (stereo not drawn) [CPD-330] | > 139
68 | COc1cc(OC)nc(NC(C(=O)c2c[nH]c3ccccc23)c2ccccc2)n1 (stereo not drawn) [CPD-347] | 6
69 | COc1cc(NC(C(=O)c2c[nH]c3ccccc23)c2ccccc2)ccc1F (stereo not drawn) [CPD-356] | 13
70 | COc1cc(NC(C(=O)c2cn(C)c3c(CCO)cccc23)c2ccccc2)cc(OC)c1 (stereo not drawn) [CPD-358] | 63
71 | COc1cc(NC(C(=O)c2c[nH]c3c(CO)cccc23)c2ccccc2)cc(OC)c1 (stereo not drawn) [CPD-362] | 41
72 | COc1cncc(NC(C(=O)c2c[nH]c3c(CCO)cccc23)c2ccccc2)c1 (stereo not drawn) [CPD-364] | 62
